Source: ChEMBL document CHEMBL5154747, “Discovery of new carbonic anhydrase IX inhibitors as anticancer agents by toning the hydrophobic and hydrophilic rims of the active site to encounter the dual-tail approach” (Eur J Med Chem, 2022)

The compounds below were run against Carbonic anhydrase 9 (Homo sapiens, UniProt Q16790) (assay: Inhibition of recombinant human CA 9 preincubated for 15 mins by phenol red dye based stopped flow CO2 hydration assay). Conditions: not given.
`NS(=O)(=O)c1ccc(Nc2nc(N/N=C/c3cccc4ccccc34)nc(Nc3ccccc3)n2)cc1` showed a Ki of 28.1 nM.

These compounds were tested on CCRF-CEM (assay: Anticancer activity against human CCRF-CEM cells assessed as cell growth inhibition at 10 uM incubated for 48 hrs by SRB assay relative to control). Conditions: read-out: GI.
Assay type: functional
Work on `NS(=O)(=O)c1ccc(Nc2nc(N/N=C/c3cccc4ccccc34)nc(Nc3ccccc3)n2)cc1` yielded an inhibition of growth at 10 µM of 81%.

What follows are compounds tested on HL-60(TB) (assay: Anticancer activity against human HL-60(TB) cells assessed as cell growth inhibition at 10 uM incubated for 48 hrs by SRB assay relative to control). Conditions: read-out: GI.
Assay type: functional
For `NS(=O)(=O)c1ccc(Nc2nc(N/N=C/c3cccc4ccccc34)nc(Nc3ccccc3)n2)cc1`, the inhibition of growth at 10 µM was 28%.

Each compound was assayed on K562 (assay: Anticancer activity against human K562 cells assessed as cell growth inhibition at 10 uM incubated for 48 hrs by SRB assay relative to control). Conditions: read-out: GI.
Assay type: functional
`NS(=O)(=O)c1ccc(Nc2nc(N/N=C/c3cccc4ccccc34)nc(Nc3ccccc3)n2)cc1` showed an inhibition of growth at 10 µM of 41%.

The compounds below were run on RPMI-8226 (assay: Anticancer activity against human RPMI-8226 cells assessed as cell growth inhibition at 10 uM incubated for 48 hrs by SRB assay relative to control). Conditions: read-out: GI.
Assay type: functional
`NS(=O)(=O)c1ccc(Nc2nc(N/N=C/c3cccc4ccccc34)nc(Nc3ccccc3)n2)cc1` was tested, and the inhibition of growth at 10 µM was 51%.

The compounds below were run on SR (assay: Anticancer activity against human SR cells assessed as cell growth inhibition at 10 uM incubated for 48 hrs by SRB assay relative to control). Conditions: read-out: GI.
Assay type: functional
Work on `NS(=O)(=O)c1ccc(Nc2nc(N/N=C/c3cccc4ccccc34)nc(Nc3ccccc3)n2)cc1` yielded an inhibition of growth at 10 µM of 65%.

The compounds below were run on EKVX (assay: Anticancer activity against human EKVX cells assessed as cell growth inhibition at 10 uM incubated for 48 hrs by SRB assay relative to control). Conditions: read-out: GI.
Assay type: functional
`NS(=O)(=O)c1ccc(Nc2nc(N/N=C/c3cccc4ccccc34)nc(Nc3ccccc3)n2)cc1` was tested, and the inhibition of growth at 10 µM was 20%.

The compounds below were run on HOP-92 (assay: Anticancer activity against human HOP-92 cells assessed as cell growth inhibition at 10 uM incubated for 48 hrs by SRB assay relative to control). Conditions: read-out: GI.
Assay type: functional
`NS(=O)(=O)c1ccc(Nc2nc(N/N=C/c3cccc4ccccc34)nc(Nc3ccccc3)n2)cc1` was tested, and the inhibition of growth at 10 µM was < 10%.

Each compound was assayed on NCI-H23 (assay: Anticancer activity against human NCI-H23 cells assessed as cell growth inhibition at 10 uM incubated for 48 hrs by SRB assay relative to control). Conditions: read-out: GI.
Assay type: functional
For `NS(=O)(=O)c1ccc(Nc2nc(N/N=C/c3cccc4ccccc34)nc(Nc3ccccc3)n2)cc1`, the inhibition of growth at 10 µM was 10%.

These compounds were tested on NCI-H460 (assay: Anticancer activity against human NCI-H460 cells assessed as cell growth inhibition at 10 uM incubated for 48 hrs by SRB assay relative to control). Conditions: read-out: GI.
Assay type: functional
`NS(=O)(=O)c1ccc(Nc2nc(N/N=C/c3cccc4ccccc34)nc(Nc3ccccc3)n2)cc1` gave an inhibition of growth at 10 µM of 13%.

What follows are compounds tested on NCI-H522 (assay: Anticancer activity against human NCI-H522 cells assessed as cell growth inhibition at 10 uM incubated for 48 hrs by SRB assay relative to control). Conditions: read-out: GI.
Assay type: functional
Work on `NS(=O)(=O)c1ccc(Nc2nc(N/N=C/c3cccc4ccccc34)nc(Nc3ccccc3)n2)cc1` yielded an inhibition of growth at 10 µM of 24%.

Each compound was assayed on COLO 205 (assay: Anticancer activity against human COLO 205 cells assessed as cell growth inhibition at 10 uM incubated for 48 hrs by SRB assay relative to control). Conditions: read-out: GI.
Assay type: functional
Compound `NS(=O)(=O)c1ccc(Nc2nc(N/N=C/c3cccc4ccccc34)nc(Nc3ccccc3)n2)cc1` has an inhibition of growth at 10 µM of 18%.

The compounds below were run on HCC 2998 (assay: Anticancer activity against human HCC 2998 cells assessed as cell growth inhibition at 10 uM incubated for 48 hrs by SRB assay relative to control). Conditions: read-out: GI.
Assay type: functional
With `NS(=O)(=O)c1ccc(Nc2nc(N/N=C/c3cccc4ccccc34)nc(Nc3ccccc3)n2)cc1` the inhibition of growth at 10 µM was 15%.

The compounds below were run on HCT-116 (assay: Anticancer activity against human HCT-116 cells assessed as cell growth inhibition at 10 uM incubated for 48 hrs by SRB assay relative to control). Conditions: read-out: GI.
Assay type: functional
`NS(=O)(=O)c1ccc(Nc2nc(N/N=C/c3cccc4ccccc34)nc(Nc3ccccc3)n2)cc1` gave an inhibition of growth at 10 µM of 45%.

These compounds were tested on HCT-15 (assay: Anticancer activity against human HCT-15 cells assessed as cell growth inhibition at 10 uM incubated for 48 hrs by SRB assay relative to control). Conditions: read-out: GI.
Assay type: functional
`NS(=O)(=O)c1ccc(Nc2nc(N/N=C/c3cccc4ccccc34)nc(Nc3ccccc3)n2)cc1` was tested, and the inhibition of growth at 10 µM was 29%.

Each compound was assayed on HT-29 (assay: Anticancer activity against human HT-29 cells assessed as cell growth inhibition at 10 uM incubated for 48 hrs by SRB assay relative to control). Conditions: read-out: GI.
Assay type: functional
`NS(=O)(=O)c1ccc(Nc2nc(N/N=C/c3cccc4ccccc34)nc(Nc3ccccc3)n2)cc1` showed an inhibition of growth at 10 µM of 36%.

These compounds were tested on SW-620 (assay: Anticancer activity against human SW-620 cells assessed as cell growth inhibition at 10 uM incubated for 48 hrs by SRB assay relative to control). Conditions: read-out: GI.
Assay type: functional
For `NS(=O)(=O)c1ccc(Nc2nc(N/N=C/c3cccc4ccccc34)nc(Nc3ccccc3)n2)cc1`, the inhibition of growth at 10 µM was < 10%.

The compounds below were run on SF-539 (assay: Anticancer activity against human SF-539 cells assessed as cell growth inhibition at 10 uM incubated for 48 hrs by SRB assay relative to control). Conditions: read-out: GI.
Assay type: functional
Work on `NS(=O)(=O)c1ccc(Nc2nc(N/N=C/c3cccc4ccccc34)nc(Nc3ccccc3)n2)cc1` yielded an inhibition of growth at 10 µM of 22%.

The compounds below were run on SNB-19 (assay: Anticancer activity against human SNB-19 cells assessed as cell growth inhibition at 10 uM incubated for 48 hrs by SRB assay relative to control). Conditions: read-out: GI.
Assay type: functional
With `NS(=O)(=O)c1ccc(Nc2nc(N/N=C/c3cccc4ccccc34)nc(Nc3ccccc3)n2)cc1` the inhibition of growth at 10 µM was < 10%.

Each compound was assayed on SNB-75 (assay: Anticancer activity against human SNB-75 cells assessed as cell growth inhibition at 10 uM incubated for 48 hrs by SRB assay relative to control). Conditions: read-out: GI.
Assay type: functional
For `NS(=O)(=O)c1ccc(Nc2nc(N/N=C/c3cccc4ccccc34)nc(Nc3ccccc3)n2)cc1`, the inhibition of growth at 10 µM was < 10%.
